# Results taken from US20190117657A1, “METHOD OF INHIBITING HIGH FAT DIET-RELATED CONDITIONS” (South Australian Health and Medical Research Institute …, priority 2016, published 2019).
# Entries after “also recorded” stand apart in the source; their conditions may differ. Where a name gives a salt, the structure may show the parent alone.
# How the values were obtained:
# 3T3-L1 cells [1] = test: Induction of adipogenic gene mRNAs in differentiating 3T3-L1 cells (RT-qPCR); assay type: cell-based
# Method: Total RNA was isolated from tissues (frozen at the time of sampling) using Trizol reagent (Sigma-Aldrich) according to the manufacturer's instructions. RNA concentrations were determined by absorbance at 260 nm, while quality and integrity were evaluated via 260/230 and 260/280 ratios using a NanoDrop spectrophotometer (Thermo Fisher Scientific). RT-real time PCR amplification was carried out using the ImProm-II Reverse Transcription System (A3800; Promega, Madison, Wis., United States of America) with random primers following the manufacturer's protocol. Subsequently, real-time quantitative (q) PCR was performed using primer sequences described in Supplemental Table S1 of Moore CEJ et al., 2016, the content of which is hereby incorporated by reference in its entirety). The comparative CT method was used to measure the amplification of target mRNA levels compared with […] (B2M) mRNA. In FIG. 1A, the relative amount of each transcript was determined using the equation 2^−dCt, where dCt=(Ct target gene-Ct ref gene), and Ct=cycle threshold.
# (§1) For induction of 3T3-L1 (fibroblast) cell differentiation, pre-adipocytes were grown to 2 days post-confluence in DMEM supplemented with 10% FBS (day 0) and the medium was changed to DMEM supplemented with 10% FBS, insulin (167 nM), dexamethasone (0.5 μM), isobutylmethylxanthine (IBMX) (0.5 mM) and rosiglitazone (2 μM). After 48 h, the medium was replaced with medium containing DMEM supplemented with 10% (v/v) FBS and 167 nM insulin. On day 4, after inducing differentiation, and thereafter, the cells were cultured in DMEM with 10% FBS. The maintenance medium was changed every 48 h until the cells were utilised for experimentation (9 days from the initiation of differentiation).
# In order to study the role of MNK2 in adipocyte differentiation, 3T3-L1 cells were used in a similar manner to that described in Example 1. […]
# other protein kinases = settings: cited from earlier work
# MNKs = test: eIF4E phosphorylation (P-eIF4E immunoblot) in 3T3-L1 cells as read-out of MNK activity; assay type: cell-based; settings: for inhibition of P-eIF4E / MNK activity: immunoblot
# From the text: Similar data obtained in three replicate experiments.
# The term “MNK inhibitor” as used herein is intended to refer to any compound that reduces the biological activity of MNK1 (including reducing the biological activity of one or both of splice variants MNK1 a and MNK1b) and/or MNK2 (including reducing the biological activity of one or both of splice variants MNK2a and MNK2b), including by reducing the amount of MNK1 and/or MNK2 expressed. For example, the MNK inhibitor may be a small organic molecule (also referred to as a “small molecule” herein), a peptide antagonist, an inhibitory antibody or fragment thereof, an interfering nucleotide molecule, an aptamer or other MNK inhibitor that inhibits the expression or biological activity as would be understood by those skilled in the art. The biological activity of MNK1 and MNK2 can be measured in a variety of ways, for example, by measuring phosphorylation of its substrate eIF4E to P-eIF4E using any suitable method known to those skilled in the art, for example, by performing an immunoblot or ELISA utilising a specific anti-P-eIF4E antibody, for example, the anti-phospho eIF4E (Ser209) antibody distributed by Merck Millipore, Catalogue No. 07-823 (Merck Millipore, Billerica, Mass., United States of America). […] Those skilled in the art will be aware of how to conduct suitable controls when measuring P-eIF4E levels. The MNK1 and/or MNK2 bioactivity can otherwise be measured using a cellular assay that can detect levels of MNK1 and/or MNK2 bioactivity. Antibodies that specifically detect phosphorylated MNK could also be used, for example, anti-P-MNK1 (Phospho-Mnk1 (Thr197/202) Antibody #2111; Cell Signaling Technology Inc, Danvers, Mass., United States of America). Additionally, those skilled in the art will appreciate that the MNK inhibitors should be safe for use for its intended purpose.
# Tissues were harvested in RIPA lysis buffer containing 50 mM TrisHCl, pH 7.4, 150 mM NaCl, 1% Triton X-100, 0.1% sodium deoxycholate, 0.1% sodium dodecyl sulfate, 1 mM ethylenediaminetetraaacteic acid (EDTA), 50 mM β-glycerolphosphate, 0.5 mM NaVO3, 0.1% 2-mercaptoethanol and protease inhibitors (Roche). After lysis, insoluble material was removed by centrifugation at 12,000 g for 10 min at 4° C. Protein content was determined by the Bradford protein assay (Bio-Rad). Immunoblotting was performed as described in Liu et al. (2014). Blots were visualised using a LI-COR Odyssey® Quantitative Imaging System. Primary antibodies as indicated in Table 5 were from Cell Signaling Technologies, except for anti-P-eIF4E (Merck Millipore). Secondary antibodies were obtained from Thermo Fisher Scientific Inc. (Waltham, Mass., United States of America) and used at 1:20,000 dilution.
# MNKs are the only kinases known to phosphorylate eIF4E, and accordingly, the phosphorylation of eIF4E (P-eIF4E) provides a direct read-out of MNK biological activity.
# (§2) Since eIF4E is only phosphorylated by the MNKs, its phosphorylation status is a reliable read-out of intracellular MNK activity. […] MNK2 is the main MNK in 3T3-L1 cells and in adipose tissue (Moore et al., 2016). In additional studies, tests were conducted to assess the effect of the MNK-I2 inhibitor on the induction of differentiation markers in 3T3-L1 cells.
# 3T3L1 cells = test: Lipolysis assay (glycerol release) in differentiated 3T3-L1 cells; assay type: cell-based; settings: cells differentiated in presence vs absence of compound
# Method: 3T3L1 cells were differentiated as described above for 9 days. The lipolysis assay was performed according to the manufactures instructions (Abcam Lipolysis assay kit, ab185433, Abcam). Briefly, after differentiation cells were washed two times with lipolysis assay buffer. Lipolysis was stimulated using 100 nM isoproterenol for 3 h. The amount of glycerol released was measured using colorimetric intensity.
# 3T3-L1 cells [2] = test: Lipid accumulation in differentiating 3T3-L1 cells (Oil Red O / triglyceride); assay type: cell-based; settings: 20 μM, 3T3-L1 cells differentiated 9 days
# Method: as §1
# Assessment of intracellular triglyceride levels was performed using Oil Red O staining as described by others (Smith et al., 1988). Briefly, on day 9 of differentiation of the 3T3-L1 cells were fixed in 10% formalin for 1 hour. […] For quantification, cells were washed extensively with water to remove unbound dye, and 1 ml isopropanol was added to the stained 6-well culture plate. After 5 min, the absorbance of the oil red extract at 510 nm was measured, with an increased absorbance indicative of an increased lipid level within the cells.
# The amount of tissue-released triglyceride (TAG) was measured using a Triglyceride Quantification Kit (Abcam, ab65336).
# MNK2 [3] = target: MNK2 (Homo sapiens, UniProt Q9HBH9); settings: cited from earlier work
# MNK2 (Homo sapiens, UniProt Q9HBH9), sequence (Q9HBH9 whole entry, species assumed): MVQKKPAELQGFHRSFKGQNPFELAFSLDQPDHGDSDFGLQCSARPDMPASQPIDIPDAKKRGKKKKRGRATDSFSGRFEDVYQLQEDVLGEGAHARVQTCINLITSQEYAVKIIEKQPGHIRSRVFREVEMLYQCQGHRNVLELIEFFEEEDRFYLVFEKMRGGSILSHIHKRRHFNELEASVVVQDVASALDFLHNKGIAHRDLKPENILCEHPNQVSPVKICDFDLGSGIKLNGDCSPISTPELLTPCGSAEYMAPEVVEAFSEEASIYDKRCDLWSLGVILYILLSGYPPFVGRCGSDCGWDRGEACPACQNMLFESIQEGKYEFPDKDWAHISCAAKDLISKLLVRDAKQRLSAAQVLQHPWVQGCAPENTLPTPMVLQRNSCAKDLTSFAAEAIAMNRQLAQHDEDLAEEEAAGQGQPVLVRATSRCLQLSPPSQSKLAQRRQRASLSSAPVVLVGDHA
# MNK1 [4] = target: MNK1 (Homo sapiens, UniProt Q9BUB5); settings: cited from earlier work
# MNK1 (Homo sapiens, UniProt Q9BUB5), sequence (Q9BUB5 whole entry, species assumed): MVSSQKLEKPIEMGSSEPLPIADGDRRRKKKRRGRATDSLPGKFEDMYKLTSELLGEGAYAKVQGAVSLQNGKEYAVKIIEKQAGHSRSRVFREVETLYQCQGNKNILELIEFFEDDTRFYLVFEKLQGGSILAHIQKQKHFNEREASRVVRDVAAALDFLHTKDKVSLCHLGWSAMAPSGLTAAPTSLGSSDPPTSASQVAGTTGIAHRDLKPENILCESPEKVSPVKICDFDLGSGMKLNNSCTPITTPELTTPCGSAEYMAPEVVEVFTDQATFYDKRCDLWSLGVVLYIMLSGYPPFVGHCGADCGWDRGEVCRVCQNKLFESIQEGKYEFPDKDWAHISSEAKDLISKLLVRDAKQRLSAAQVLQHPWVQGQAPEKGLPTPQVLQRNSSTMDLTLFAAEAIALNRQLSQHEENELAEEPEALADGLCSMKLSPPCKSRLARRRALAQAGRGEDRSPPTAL
# MNK2 [5] = target: T1, MNK2 (Mus musculus, UniProt Q8CDB0); test: P-eIF4E in MNK1-KO mouse embryonic fibroblasts (reports on MNK2); assay type: cell-based
# T1 construct: endogenous in cells; host or cells: MNK1-KO mouse embryonic fibroblasts
# T1 sequence (Q8CDB0 whole entry): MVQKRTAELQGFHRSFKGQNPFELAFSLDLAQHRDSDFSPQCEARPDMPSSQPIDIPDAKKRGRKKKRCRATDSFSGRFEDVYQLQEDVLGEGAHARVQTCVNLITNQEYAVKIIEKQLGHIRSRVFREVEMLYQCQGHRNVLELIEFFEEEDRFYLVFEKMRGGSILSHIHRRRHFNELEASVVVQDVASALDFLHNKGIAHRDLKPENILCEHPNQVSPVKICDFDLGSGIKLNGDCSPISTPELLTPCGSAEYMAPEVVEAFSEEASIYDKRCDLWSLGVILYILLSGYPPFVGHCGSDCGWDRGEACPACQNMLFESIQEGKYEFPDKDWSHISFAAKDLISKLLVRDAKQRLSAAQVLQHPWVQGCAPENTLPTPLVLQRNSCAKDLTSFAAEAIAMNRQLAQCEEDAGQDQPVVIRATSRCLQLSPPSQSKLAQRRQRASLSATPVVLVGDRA
# MNK1 [6] = target: T2, MNK1 (Mus musculus, UniProt O08605); test: P-eIF4E in MNK2-KO mouse embryonic fibroblasts (reports on MNK1); assay type: cell-based; settings: 1 h
# T2 construct: endogenous in cells; host or cells: MNK2-KO mouse embryonic fibroblasts
# T2 sequence (O08605 whole entry): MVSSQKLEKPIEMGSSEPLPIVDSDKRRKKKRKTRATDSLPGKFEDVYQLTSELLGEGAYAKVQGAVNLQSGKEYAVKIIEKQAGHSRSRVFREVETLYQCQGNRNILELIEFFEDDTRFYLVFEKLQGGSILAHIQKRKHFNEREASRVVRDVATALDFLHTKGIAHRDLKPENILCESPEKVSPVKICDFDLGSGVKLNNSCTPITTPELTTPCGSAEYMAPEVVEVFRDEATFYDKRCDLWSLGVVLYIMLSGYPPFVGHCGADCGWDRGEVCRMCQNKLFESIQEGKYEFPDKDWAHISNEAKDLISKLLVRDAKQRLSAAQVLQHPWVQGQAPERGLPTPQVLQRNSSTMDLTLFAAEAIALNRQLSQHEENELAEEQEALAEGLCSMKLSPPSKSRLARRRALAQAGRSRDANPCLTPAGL
# From the text: FIG. 16 provides the results of studies conducted on mouse embryonic fibroblasts (MEFs): MNK1-KO (A) or MNK2-KO (B). […] The graphs show combined data from three experiments. *, p<0.05 vs. untreated control; ****, p<0.0001, vs. untreated control.
# In some embodiments, the MNK inhibitor may preferably show selectivity and/or increased inhibitory potency to MNK2. A simple test for assessing the selectivity of an MNK inhibitor can be conducted by treating suitable cells from animals in which either MNK1 or MNK2 has been knocked out (eg mouse embryonic fibroblasts (MEFs) from MNK1-KO and MNK2-KO mice) with the MNK inhibitor. Since, in MNK1-KO MEFs, eIF4E phosphorylation depends on MNK2, and vice versa, monitoring the effect of different concentrations of an MNK inhibitor of interest on P-eIF4E levels in MNK-KO MEFs reports on the ability of that compound to inhibit MNK2 (MNK1-KO MEFs) or MNK1 (MNK2-KO MEFs).
# as §2
SMILES,"induction of adipogenic genes (PPARγ, C/EBPα, SREBP1c, GLUT4, CD36 mRNA) (3T3-L1 cells [1]; 20 μM, day 3 and 6 of differentiation)",inhibition of other protein kinases (other protein kinases),inhibition of P-eIF4E / MNK activity (MNKs),glycerol released in lipolysis assay (3T3L1 cells),accumulation of lipid (Oil Red O) (3T3-L1 cells [2]),IC50 (MNK2 [3]) [nM],IC50 (MNK1 [4]) [nM],"induction of adipogenic genes (Cebpα, Cebpβ, Cebpδ, Pparγ, Fas, Acc, Cd36 mRNA) (3T3-L1 cells [1]; 3T3-L1 cells with differentiation cocktail, RT-qPCR)","Comments (ability to inhibit MNKs, eIF4E phosphorylation) (MNKs)","inhibition of P-eIF4E levels in MNK1-KO MEFs (MNK2 [5]; 1 h, lowest concentration 0.1 μM)",selectivity for MNK2 over MNK1 (MNK2 [5]; comparison of MNK1-KO and MNK2-KO MEFs),inhibition of P-eIF4E in MNK2-KO MEFs (MNK1 [6])
"Nc1ncnc2[nH]nc(Nc3ccc(F)cc3)c12 [CGP57380, N3-(4-Fluorophenyl)-1H-pyrazolo-[3,4-d]pyrimidine-3,4-diamine]",substantially blocked the induction of all of these genes; also recorded: impairs the induction of key transcription factors; also recorded: inhibits the expression of the glucose and lipid transporters GLUT4 and CD36; also recorded: inhibited expression of a number of genes required for adipocyte differentiation,inhibit other protein kinases in addition to the MNKs,almost completely blocking MNK activity,less glycerol was released,inhibited the accumulation of lipid; also recorded: markedly inhibited,–,–,–,–,–,–,–
"c1cc(-c2cc(C3CCNCC3)[nH]n2)ccn1 [ETP 45835 dihydrochloride, 4-[5-(4-Piperidinyl)-1H-pyrazol-3-yl]pyridine dihydrochloride]",–,–,–,–,–,646,575,–,–,–,–,–
Cc1c(C(=O)NCCCN2CCCC2)sc2ncnc(Nc3ccc(F)cc3OC(C)C)c12 [MNK-I2],–,–,inhibits P-eIF4E strongly,–,–,–,–,impaired the induction of all of the genes in the adipogenic programme,"Good activity, especially against MNK2",inhibited P-eIF4E levels almost completely at all concentrations tested,selectivity of the MNK-I2 inhibitor for MNK2 over MNK1,weaker inhibitory effect than MNK-I1
